US20150038438A1, “ANTIBACTERIAL COMPOUNDS AND METHODS FOR USE” (PTC THERAPEUTICS, INC., priority 2011, published 2015)
≈ marks a conversion by molar mass, not a printed value. Where a name gives a salt, the structure may show the parent alone. Read-outs that look alike come from different tables or passages of the source.

Assays:
Assay in all cases: Antibacterial activity, microbroth dilution method (MIC)
[1] = test system: super sensitive Gram-negative Escherichia coli (E. coli) BAS849; format: cell-based; settings: Escherichia coli, read-out: MIC, E. coli BAS849
Outline: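 Read-out: visual absence of growth. The lowest concentration meeting this gives the MIC, expressed in μg/mL, with microbroth dilution as the method.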

[2] = test system: Gram-positive Staphylococcus aureus (S. aureus) 29213; format: cell-based; settings: Staphylococcus aureus, Gram-positive S. aureus 29213
Outline: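 Broth microdilution; endpoint = no macroscopic growth; value = lowest inhibiting concn, μg/mL.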

[3] = test system: control Gram-negative E. coli 25922 strain; format: cell-based, Escherichia coli; settings: Escherichia coli
Outline: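 Growth inhibition by microbroth dilution. MIC = lowest μg/mL with no visible growth. Strain 25922 is the control Gram-negative; BAS849 is hypersensitive.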

[4] = super sensitive Gram-negative E. coli BAS849, microbroth dilution

Row | SMILES | MIC [1, 4] [µg/mL] | MIC [2] [µg/mL] | MIC [3] [µg/mL] | MIC [1] [µg/mL]
1 | CN(C)C(=O)CNCc1cc2cc3c(cc2n1C)CCCc1c-3[nH]c(=O)c(C(=O)O)c1O.Cl [Cpd 163, 10-(((2-(dimethylamino)-2-oxoethyl)amino)methyl)-4-hydroxy-9-methyl-2-oxo-1,2,5,6,7,9-hexahydropyrido[3′,2′:6,7]cyclohepta[1,2-f]indole-3-carboxylic acid hydrochloride] | < 1 | 12.5 to 150 | 3.5 to 12.5 | –
2 | CCNCCc1cc2cc3c(cc2n1C)C=CCc1c-3[nH]c(=O)c(C(=O)O)c1O.O=C(O)C(F)(F)F [Cpd 164, 10-(2-(ethylamino)ethyl)-4-hydroxy-9-methyl-2-oxo-1,2,5,9-tetrahydropyrido[3′,2′:6,7]cyclohepta[1,2-f]indole-3-carboxylic acid trifluoroacetate] | – | 12.5 to 150 | 1 to 3.5 | < 1
3 | CCNCCc1cc2cc3c(cc2n1C)CCCc1c-3[nH]c(=O)c(C(=O)O)c1O.O=C(O)C(F)(F)F [Cpd 165, 10-(2-(ethylamino)ethyl)-4-hydroxy-9-methyl-2-oxo-1,2,5,6,7,9-hexahydropyrido[3′,2′:6,7]cyclohepta[1,2-f]indole-3-carboxylic acid trifluoroacetate] | – | 12.5 to 150 | 1 to 3.5 | < 1
4 | O=C(O)c1c(O)c2c([nH]c1=O)-c1ccc(N[C@@H]3CC[C@H]4CNC[C@H]43)cc1OCC2 [Cpd 166, 4-hydroxy-9-(((cis)-octahydrocyclopenta[c]pyrrol-4-yl)-(cis)-amino)-2-oxo-1,2,5,6-tetrahydrobenzo[2,3]oxepino[4,5-b]pyridine-3-carboxylic acid hydrochloride] | 12.5 to 150 | 12.5 to 150 | 12.5 to 150 | –
5 | Cl.Cn1c(CNC2(C)CC2)cc2cc3c(cc21)OCCc1c-3[nH]c(=O)c(C(=O)O)c1O [Cpd 167, 4-hydroxy-9-methyl-10-(((1-methylcyclopropyl)amino)methyl)-2-oxo-2,5,6,9-tetrahydro-1H-pyrido[2′,3′:4,5]oxepino[3,2-f]indole-3-carboxylic acid hydrochloride] | < 1 | 1 to 3.5 | < 1 | –
6 | CCC(C)NCc1cc2cc3c(cc2n1C)OCCc1c-3[nH]c(=O)c(C(=O)O)c1O.Cl (stereo not drawn) [Cpd 168, 10-((sec-butylamino)methyl)-4-hydroxy-9-methyl-2-oxo-2,5,6,9-tetrahydro-1H-pyrido[2′,3′:4,5]oxepino[3,2-f]indole-3-carboxylic acid hydrochloride] | < 1 | 3.5 to 12.5 | < 1 | –
7 | CCCNCc1cc2cc3c(cc2n1C)OCCc1c-3[nH]c(=O)c(C(=O)O)c1O.Cl [Cpd 169, 4-hydroxy-9-methyl-2-oxo-10-((propylamino)methyl)-2,5,6,9-tetrahydro-1H-pyrido[2′,3′:4,5]oxepino[3,2-f]indole-3-carboxylic acid hydrochloride] | < 1 | 3.5 to 12.5 | < 1 | –
8 | COc1ccc(CNCc2cc3cc4c(cc3n2C)OCCc2c-4[nH]c(=O)c(C(=O)O)c2O)c(OC)c1.Cl [Cpd 170, 10-(((2,4-dimethoxybenzyl)amino)methyl)-4-hydroxy-9-methyl-2-oxo-2,5,6,9-tetrahydro-1H-pyrido[2′,3′:4,5]oxepino[3,2-f]indole-3-carboxylic acid hydrochloride] | < 1 | 1 to 3.5 | 1 to 3.5 | –
9 | Cl.Cn1c(CNC2CC2)cc2cc3c(cc21)OCCc1c-3[nH]c(=O)c(C(=O)O)c1O [Cpd 171, 10-((cyclopropylamino)methyl)-4-hydroxy-9-methyl-2-oxo-2,5,6,9-tetrahydro-1H-pyrido[2′,3′:4,5]oxepino[3,2-f]indole-3-carboxylic acid hydrochloride] | < 1 | 3.5 to 12.5 | < 1 | –
10 | Cl.Cn1c(CNC2CCC2)cc2cc3c(cc21)OCCc1c-3[nH]c(=O)c(C(=O)O)c1O [Cpd 172, 10-((cyclobutylamino)methyl)-4-hydroxy-9-methyl-2-oxo-2,5,6,9-tetrahydro-1H-pyrido[2′,3′:4,5]oxepino[3,2-f]indole-3-carboxylic acid hydrochloride] | < 1 | 3.5 to 12.5 | < 1 | –
11 | CN(C)Cc1cc2cc3c(cc2n1C)OCCc1c-3[nH]c(=O)c(C(=O)O)c1O.Cl [Cpd 173, 10-((dimethylamino)methyl)-4-hydroxy-9-methyl-2-oxo-2,5,6,9-tetrahydro-1H-pyrido[2′,3′:4,5]oxepino[3,2-f]indole-3-carboxylic acid hydrochloride] | < 1 | 12.5 to 150 | < 1 | –
12 | Cl.Cn1c(CN2CCCC2)cc2cc3c(cc21)OCCc1c-3[nH]c(=O)c(C(=O)O)c1O [Cpd 174, 4-hydroxy-9-methyl-2-oxo-10-(pyrrolidin-1-ylmethyl)-2,5,6,9-tetrahydro-1H-pyrido[2′,3′:4,5]oxepino[3,2-f]indole-3-carboxylic acid hydrochloride] | < 1 | 12.5 to 150 | 1 to 3.5 | –
13 | Cl.Cn1c(CNC(C)(C)C)cc2cc3c(cc21)OCCc1c-3[nH]c(=O)c(C(=O)O)c1O [Cpd 175, 10-((tert-butylamino)methyl)-4-hydroxy-9-methyl-2-oxo-2,5,6,9-tetrahydro-1H-pyrido[2′,3′:4,5]oxepino[3,2-f]indole-3-carboxylic acid hydrochloride] | < 1 | 3.5 to 12.5 | < 1 | –
14 | CN1CCN(Cc2cc3cc4c(cc3n2C)OCCc2c-4[nH]c(=O)c(C(=O)O)c2O)CC1.Cl.Cl [Cpd 176, 4-hydroxy-9-methyl-10-((4-methylpiperazin-1-yl)methyl)-2-oxo-2,5,6,9-tetrahydro-1H-pyrido[2′,3′:4,5]oxepino[3,2-f]indole-3-carboxylic acid dihydrochloride] | < 1 | 12.5 to 150 | 3.5 to 12.5 | –
15 | Cl.Cn1c(CNCCO)cc2cc3c(cc21)OCCc1c-3[nH]c(=O)c(C(=O)O)c1O [Cpd 177, 4-hydroxy-10-(((2-hydroxyethyl)amino)methyl)-9-methyl-2-oxo-2,5,6,9-tetrahydro-1H-pyrido[2′,3′:4,5]oxepino[3,2-f]indole-3-carboxylic acid hydrochloride] | < 1 | 12.5 to 150 | 12.5 to 150 | –
16 | CC(CO)NCc1cc2cc3c(cc2n1C)OCCc1c-3[nH]c(=O)c(C(=O)O)c1O.Cl (stereo not drawn) [Cpd 178, 4-hydroxy-10-(((1-hydroxypropan-2-yl)amino)methyl)-9-methyl-2-oxo-2,5,6,9-tetrahydro-1H-pyrido[2′,3′:4,5]oxepino[3,2-f]indole-3-carboxylic acid hydrochloride] | < 1 | 12.5 to 150 | 12.5 to 150 | –
17 | Cl.Cl.Cn1c(CNCCN2CCCC2)cc2cc3c(cc21)OCCc1c-3[nH]c(=O)c(C(=O)O)c1O [Cpd 179, 4-hydroxy-9-methyl-2-oxo-10-(((2-(pyrrolidin-1-yl)ethyl)amino)methyl)-2,5,6,9-tetrahydro-1H-pyrido[2′,3′:4,5]oxepino[3,2-f]indole-3-carboxylic acid dihydrochloride] | 12.5 to 150 | 12.5 to 150 | 12.5 to 150 | –
18 | Cl.Cl.Cn1c(CNCCN)cc2cc3c(cc21)OCCc1c-3[nH]c(=O)c(C(=O)O)c1O [Cpd 180, 10-(((2-aminoethyl)amino)methyl)-4-hydroxy-9-methyl-2-oxo-2,5,6,9-tetrahydro-1H-pyrido[2′,3′:4,5]oxepino[3,2-f]indole-3-carboxylic acid dihydrochloride] | 3.5 to 12.5 | 12.5 to 150 | 12.5 to 150 | –
19 | CNCCNCc1cc2cc3c(cc2n1C)OCCc1c-3[nH]c(=O)c(C(=O)O)c1O.Cl.Cl [Cpd 181, 4-hydroxy-9-methyl-10-(((2-(methylamino)ethyl)amino)methyl)-2-oxo-2,5,6,9-tetrahydro-1H-pyrido[2′,3′:4,5]oxepino[3,2-f]indole-3-carboxylic acid dihydrochloride] | 12.5 to 150 | 12.5 to 150 | 12.5 to 150 | –
20 | CN(C)CCNCc1cc2cc3c(cc2n1C)OCCc1c-3[nH]c(=O)c(C(=O)O)c1O.Cl.Cl [Cpd 182, 10-(((2-(dimethylamino)ethyl)amino)methyl)-4-hydroxy-9-methyl-2-oxo-2,5,6,9-tetrahydro-1H-pyrido[2′,3′:4,5]oxepino[3,2-f]indole-3-carboxylic acid dihydrochloride] | 1 to 3.5 | 12.5 to 150 | 12.5 to 150 | –
21 | COCCNCc1cc2cc3c(cc2n1C)OCCc1c-3[nH]c(=O)c(C(=O)O)c1O.Cl [Cpd 183, 4-hydroxy-10-(((2-methoxyethyl)amino)methyl)-9-methyl-2-oxo-2,5,6,9-tetrahydro-1H-pyrido[2′,3′:4,5]oxepino[3,2-f]indole-3-carboxylic acid hydrochloride] | < 1 | 12.5 to 150 | 1 to 3.5 | –
22 | COCC(C)NCc1cc2cc3c(cc2n1C)OCCc1c-3[nH]c(=O)c(C(=O)O)c1O.Cl (stereo not drawn) [Cpd 184, 4-hydroxy-10-(((1-methoxypropan-2-yl)amino)methyl)-9-methyl-2-oxo-2,5,6,9-tetrahydro-1H-pyrido[2′,3′:4,5]oxepino[3,2-f]indole-3-carboxylic acid hydrochloride] | < 1 | 12.5 to 150 | 3.5 to 12.5 | –
23 | CN(C)c1ccc2c(c1)SCCc1c-2[nH]c(=O)c(C(=O)O)c1O [Cpd 185, 9-(dimethylamino)-4-hydroxy-2-oxo-1,2,5,6-tetrahydrobenzo[2,3]thiepino[4,5-b]pyridine-3-carboxylic acid] | < 1 | 12.5 to 150 (≈ 37.6 to 451 µM) | 12.5 to 150 (≈ 37.6 to 451 µM) | –
24 | O=C(O)c1c(O)c2c([nH]c1=O)-c1ccc(N3CCCC3)cc1SCC2 [Cpd 186, 4-hydroxy-2-oxo-9-(pyrrolidin-1-yl)-1,2,5,6-tetrahydrobenzo[2,3]thiepino[4,5-b]pyridine-3-carboxylic acid] | < 1 | 3.5 to 12.5 (≈ 9.77 to 34.9 µM) | 12.5 to 150 (≈ 34.9 to 419 µM) | –
